# Test results: PMC5848165 (Toxins, 2018)
# Residues, ends and D or L forms follow the SMILES beside them.
# Experiments:
# Nav1.7 = test: Gating properties of Nav1.7 (current-voltage, steady-state activation and inactivation); assay type: cell-based, human
# Method: We investigated the effects of this toxin on the gating properties of Nav1.7. The current-voltage relationship of Nav1.7 was investigated using step depolarization ranging from −80 to +80 mV from a holding potential of −80 mV. Under control conditions, the threshold of initial activation was about −40 mV, and the inward current peaked at −20 mV. […] The midpoint of channel activation before and after application of 1 µM toxin was −27.9 ± 3.3 and −28.1 ± 2.9 mV, respectively (Figure S3B). […] The effect of JZTX-34 on steady-state inactivation was also investigated using a standard two-pulse protocol as described in the legend. […]
# cDNA genes encoding rat Nav1.1, Nav1.2, Nav1.3, Nav1.4, Nav1.5, human Nav1.7 (hNav1.7), and hNav1.8 were subcloned into the vectors pRGB4 and pcDNA3.1-mod, respectively. The chimera of Nav1.5 (Nav1.7-DII-S3-S4) and Nav1.7 (Nav1.5-DIV-S3-S4) were constructed according the methods described previously. Mutations of Nav1.5 and Nav1.7 were constructed using QuikChange II XL Site-Directed Mutagenesis kit (Agilent Technologies Inc, Palo Alto, CA, USA). All chimera and mutations were sequenced to determine the right sequences.
# The HEK293T cells were maintained in standard culture conditions (5% CO2 and 37 °C). Then, 10% fetal bovine serum was added to Dulbecco’s modified Eagle’s medium. Sodium channel subtypes (Nav1.1–Nav1.5, Nav1.7), the chimera and mutants of Nav1.5 and Nav1.7 with β1subnit tagged with eGFP in a molar ratio of 2:1, were transiently co-transfected into HEK293 cells using Lipofectamine 3000 (Invitrogen, Carlsbad, CA, USA). Nav1.8, β1subnit, and eGFP were co-transfected into ND cells using the same protocol. After culturing for 36–72 h, cells with obvious green fluorescence were selected for sodium currents recordings the internal solution for sodium currents recording that contained (in mM) 140 CsF, 5 NaCl, 10 HEPES, 3 Na2-ATP, and 10 EGTA. […]
# Sodium currents were recorded from DRG, HEK293, and ND cells by the whole-cell patch-clamp technique at 25 °C. […] Experiments date were acquired from whole-cell Axon 700B patch clamp amplifier (Molecular Devices, Sunnyvale, CA, USA) and analyzed by the program Clampfit10.0 (Molecular Devices, Sunnyvale, CA, USA) and Sigmaplot. […]
# Data from Axon 700B patch clamp were analyzed by Clampfit10.0 (Molecular Devices, Sunnyvale, CA, USA). […] The G-V curves were obtained by calculating the conductance (G) at each voltage (V) using the equation G = I/(V1 − Vrev), with Vrev being the reversal potential determined for each cell individually. […] All the results from patch clamp and animal models are expressed as means ± standard error of the mean (SEM). Statistical significance was calculated using Student’s t-test and was defined as p < 0.05. […]
# [1] = tested on: formalin-induced paw licking response in mice; test: Formalin-induced paw licking; assay type: in vivo, mouse (Kunming); conditions: for paw licking time, early phase: control 145.5 s; for paw licking time, early phase / paw licking time, late phase: n = 6; for paw licking time, late phase: control 414.5 s
# Method: Since Nav1.7 plays an important role in pain, the analgesic effects of JZTX-34 were examined in three animal models (formalin-induced paw licking, acetic acid-induced writhing, and hot plate). Intraplantar injection of formalin causes pain and can be divided into two phases. The early phase was neurogenic pain and usually occurred within […]), and the late phase was inflammatory pain lasting from 15 to 30 min).
# Figure 6 Effects of JZTX-34 on pain. (A) Effects of JZTX-34 on the early phase (0–5 min) and late phase (15–30 min) of formalin-induced paw licking response in mice. (B) Effects of JZTX-34 on the acetic acid-induced writhing response in mice. (C)Effects of JZTX-34 on the hot plate test in mice.
# The synthesized JZTX-34 was obtained according to the procedure as previously described. […] Rats (Sprague-Dawley) and Kunming mice were maintained in the Laboratory of Protein Chemistry of Hunan Normal University. All of the experimental involving animals were approved by the Animal Care and Use Committee of Hunan Normal University (2016-273, 13 October 2016).
# Formalin test was performed according to the method described previously. […] After test samples were intraperitoneally (i.p.) injected, 5% formalin (20 μL) was injected to the plantar surface of right hind paw. The time spent licking the injected paw was counted every 5 min. Phase I was defined as 0–10 min, and Phase II defined as […].
# Data from Axon 700B patch clamp were analyzed by Clampfit10.0 (Molecular Devices, Sunnyvale, CA, USA). Dose-response curves were fitted by the Hill logistic equation: y = 1 − (1 − fmax)/[…]. In this equation, n stands an empirical Hill coefficient and fmax is the fraction of current resistant to inhibition at high toxin (Tx) concentration. The G-V curves were obtained by calculating the conductance (G) at each voltage (V) using the equation G = I/(V1 − Vrev), with Vrev being the reversal potential determined for each cell individually. G-V curves were fitted using a Boltzmann equation—y = 1/(1 + exp[(Va − V)/κ])—in which Va, V, and κ represent midpoint voltage of kinetics, test potential, and slope factor, respectively. […] Statistical significance was calculated using Student’s t-test and was defined as p < 0.05.
smiles,measurement,setting,value
"CC(C)C[C@@H]1NC(=O)[C@H](Cc2c[nH]c3ccccc23)NC(=O)[C@H](CCC(=O)O)NC(=O)[C@H](CCCNC(=N)N)NC(=O)[C@@H](NC(=O)[C@H](C)N)CSSC[C@@H]2NC(=O)[C@@H]3CSSC[C@@H](C(=O)N[C@H](C(=O)N[C@@H](Cc4c[nH]c5ccccc45)C(=O)N[C@@H](CC(=O)O)C(=O)N[C@@H](Cc4c[nH]c5ccccc45)C(=O)N[C@H](C(=O)N[C@H](C(=O)O)C(C)C)[C@@H](C)O)C(C)C)NC(=O)[C@H](Cc4c[nH]cn4)NC(=O)[C@H](Cc4ccc(O)cc4)NC(=O)[C@@H]4CCCN4C(=O)[C@H](Cc4c[nH]c5ccccc45)NC(=O)[C@H](CCCCN)NC(=O)[C@H](CCCCN)NC(=O)[C@H](CCCNC(=N)N)NC(=O)[C@H](CSSC[C@H](NC(=O)CNC(=O)CNC1=O)C(=O)N[C@@H](CO)C(=O)N[C@@H](CCCCN)C(=O)N[C@@H](CC(=O)O)C(=O)N[C@@H](C)C(=O)N[C@@H](CC(=O)O)C(=O)N3)NC(=O)[C@H](CCC(=O)O)NC(=O)[C@H](CC(C)C)NC(=O)[C@H](Cc1c[nH]cn1)NC(=O)[C@H](C)NC2=O [JZTX-34, Jingzhaotoxin-34] (HELM PEPTIDE1{A.C.R.E.W.L.G.G.C.S.K.D.A.D.C.C.A.H.L.E.C.R.K.K.W.P.Y.H.C.V.W.D.W.T.V}$PEPTIDE1,PEPTIDE1,2:R3-16:R3|PEPTIDE1,PEPTIDE1,9:R3-21:R3|PEPTIDE1,PEPTIDE1,15:R3-29:R3$$$V2.0; N-terminus and C-terminus assumed)",shift of steady-state inactivation,Nav1.7; 1 µM,small hyperpolarizing shift in the steady-state inactivation
same,midpoint of steady-state inactivation with toxin,"Nav1.7; 1 µM, ""with or without"" toxin −67.3 and −73.7 mV, respectively, 500 ms prepulse −100 to −10 mV, test pulse −10 mV 20 ms, n = 5",about −67.3 mV
same,current-voltage relationship of Nav1.7,"Nav1.7; 1 µM, steps −80 to +80 mV from −80 mV holding",did not alter the current-voltage relationship
same,midpoint of channel activation after toxin,"Nav1.7; after 1 µM toxin (before: −27.9 ± 3.3 mV), Boltzmann fit, n = 5",−28.1 ± 2.9 mV
same,"paw licking time, early phase",[1]; 0.5 mg/kg i.p.,125.5 s
same,"paw licking time, late phase",[1]; 0.5 mg/kg i.p.,282.2 s
same,"paw licking time, early phase",[1]; 1 mg/kg i.p.,50.1 s
same,"paw licking time, late phase",[1]; 1 mg/kg i.p.,263.6 s
same,"paw licking time, early phase",[1]; 2 mg/kg i.p.,34.7 s
same,"paw licking time, late phase",[1]; 2 mg/kg i.p.,148.0 s
same,"formalin first phase, efficacy vs morphine",[1]; JZTX-34 2 mg/kg vs morphine 5 mg/kg,equipotent with morphine (5 mg/kg)
